Assay results reported in US9200046B2, “Reporter system for high throughput screening of compounds and uses thereof” (priority 2011, dated 2015).
Counter-ions that a name gives are not always drawn. Like-named read-outs stand apart in the source and are kept apart here.

Target: Nrf2-Keap1 complex (Homo sapiens, UniProt Q14145)
Assay: cell-based
Assay type: cell-based
Conditions: for activation at 16 µM / activation at 32 µM: 3 h; for activation at 16 µM: read-out: Activation 100 nL; for activation at 32 µM: read-out: Activation 200 nL
[1] = Table 2, 100 nL compound, screen run at 16 and 32 μM, 3 hr
[2] = Table 2, 200 nL compound, screen run at 16 and 32 μM, 3 hr

Chain of Nrf2-Keap1 complex (Q14145 whole entry, one chain of several): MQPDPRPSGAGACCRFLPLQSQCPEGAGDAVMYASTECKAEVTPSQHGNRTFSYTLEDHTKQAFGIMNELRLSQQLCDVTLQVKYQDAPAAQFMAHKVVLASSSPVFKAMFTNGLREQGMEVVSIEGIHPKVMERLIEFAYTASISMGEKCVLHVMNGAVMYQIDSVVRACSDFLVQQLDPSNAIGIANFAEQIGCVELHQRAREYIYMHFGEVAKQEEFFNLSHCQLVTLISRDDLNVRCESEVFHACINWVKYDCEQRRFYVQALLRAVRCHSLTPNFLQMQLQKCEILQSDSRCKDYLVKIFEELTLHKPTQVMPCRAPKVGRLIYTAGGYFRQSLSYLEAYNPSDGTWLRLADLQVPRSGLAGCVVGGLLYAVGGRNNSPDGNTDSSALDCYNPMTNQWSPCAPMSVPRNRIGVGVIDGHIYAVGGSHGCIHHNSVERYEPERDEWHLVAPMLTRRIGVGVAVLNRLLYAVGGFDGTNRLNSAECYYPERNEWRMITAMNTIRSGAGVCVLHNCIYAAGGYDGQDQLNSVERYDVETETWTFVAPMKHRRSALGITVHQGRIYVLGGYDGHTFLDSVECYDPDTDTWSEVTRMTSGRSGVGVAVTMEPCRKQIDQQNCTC

| Compound | activation at 16 µM [%] | activation at 32 µM [%] | 100 nL (luminescence) [1] | 200 nL (luminescence) [2] | Activation 100 nL [%] | Activation 200 nL [%] | 100 nL (luminescence) | 200 nL (luminescence) | 100 nL (luminescence) (Table 1A, 100 nL compound, screen run at 16 and 32 μM, 3 hr) | 200 nL (luminescence) (Table 1A, 200 nL compound, screen run at 16 and 32 μM, 3 hr) | Neh2-luc reporter activation [%] |
| --- | --- | --- | --- | --- | --- | --- | --- | --- | --- | --- | --- |
| C=C1C2=CC(=O)O[C@@H](c3ccoc3)[C@]2(C)CC[C@@H]1[C@@]1(C)C=CC(=O)C(C)(C)[C@@H]1CC(=O)OC [DEOXYANDIROBIN] | 95 | 106 | 1816 | 1944 |  |  |  |  |  |  |  |
| CC(=O)O[C@H]1C[C@@H](OC(C)=O)C(C)(C)[C@@H]2CC(=O)[C@]3(C)[C@H](CC[C@@]4(C)[C@H](c5ccoc5)OC(=O)[C@H]5O[C@]543)[C@@]12C [7-DEACETOXY-7-OXOKHIVORIN] |  |  | 2924 | 2284 | 168 | 128 |  |  |  |  |  |
| CC1(C)C2(Cl)C(Cl)C(Cl)C(Cl)(C(Cl)Cl)C1(Cl)C2Cl (stereo not drawn) [STROBANE] | 388 | 235 | 5556 | 5836 |  |  |  |  |  |  |  |
| O=C(NC(=O)c1c(F)cccc1F)Nc1cc(Cl)c(OC(F)(F)C(F)C(F)(F)F)cc1Cl (stereo not drawn) [LUFENURON] | 32 | 29 |  |  |  |  | 644 | 1022 |  |  |  |
| COc1ccc2ccc(=O)oc2c1CC=C(C)C [OSTHOL] |  |  | 1136 | 1634 | 58 | 52 |  |  |  |  |  |
| C=C(C)[C@@H]1CC=C(CO)CC1 [PERILLYLALCOHOL] | 31 | 27 |  |  |  |  | 824 | 736 |  |  |  |
| CNC(=O)CSP(=S)(OC)OC [DIMETHOATE] | 59 | 145 | 1148 | 3772 |  |  |  |  |  |  |  |
| COC1=CC(=O)C[C@@H](C)[C@]12Oc1c(Cl)c(OC)cc(OC)c1C2=O [GRISEOFULVIN, reference compound] | 41 | 182 | 1208 | 3684 |  |  |  |  |  |  |  |
| CC1(C)C(=O)CC[C@]2(C)[C@H]3CC[C@]4(C)C(=CC(=O)O[C@H]4c4ccoc4)[C@]3(C)[C@H](O)C[C@@H]12 [DIHYDRO-7-DESACETYLDEOXYGEDUNIN] |  |  | 1852 | 1796 | 98 | 96 |  |  |  |  |  |
| CCCCCCCCCCCCCC(=O)O[C@@H]1[C@@H](C)[C@@]2(O)[C@@H](C=C(CO)C[C@]3(O)C(=O)C(C)=C[C@@H]23)[C@@H]2C(C)(C)[C@]12OC(C)=O [PHORBOLMYRISTATEACETATE, reference compound] | 47 | 16 | 776 | 712 |  |  |  |  |  |  |  |
| Oc1cc(O)c2c(c1)O[C@H](c1cc(O)c(O)c(O)c1)[C@H](O)C2 [EPIGALLOCATECHIN] | 33 | -20 | 864 | 28 |  |  |  |  |  |  |  |
| C=C(C)[C@H]1Cc2c(ccc3c2O[C@@H]2COc4cc(OC)c(OC)cc4[C@@H]2C3=O)O1 [ROTENONE] | 31 | 30 | 776 | 1136 |  |  |  |  |  |  |  |
| CNc1ccccc1C(=O)N1CCc2c([nH]c3ccccc23)C1=O [RHETSININE] | 53 | 4 |  |  |  |  |  |  | 1076 | 532 |  |
| CC1=C(/C=C/C(C)=C/C=C/C(C)=C\C(=O)O)C(C)(C)CCC1 [ISOTRETINON, reference compound] |  |  | 1068 | 1456 | 34 | 86 |  |  |  |  |  |
| COc1cc2c(c(OC)c1OC)-c1ccc(OC)c(=O)cc1[C@@H](NC(C)=O)CC2 [COLCHICINE, reference compound] | 49 | 24 |  |  |  |  | 944 | 840 |  |  |  |
| C=C[C@@](C)(O)CCC1C(=C)CCC2[C@@](C)(CO)CCC[C@]12C (stereo partly drawn) [EPI(13)TORULOSOL] |  |  | 724 | 448 | 27 | 0 |  |  |  |  |  |
| CC(=O)OC[C@H]1O[C@@H]([S-])[C@H](OC(C)=O)[C@@H](OC(C)=O)[C@@H]1OC(C)=O.CCP(CC)CC.[Au+] [auranofin, reference compound] |  |  |  |  |  |  |  |  |  |  | 200 |
| O=C(/C=C/c1ccccc1)c1ccc(O)cc1 [4′-HYDROXYCHALCONE] | 217 | 76 |  |  |  |  | 3674 | 1488 |  |  |  |
| 1(2)alpha-EPDXYDEOXYDIHYDROGEDUNIN |  |  | 752 | 1028 | 29 | 25 |  |  |  |  |  |
| CC(C)[C@@H](C)/C=C/[C@@H](C)[C@H]1CC[C@H]2C3=CC=C4C[C@@H](O)CC[C@]4(C)[C@H]3CC[C@]12C [ERGOSTEROL] | 86 | 86 | 1676 | 1640 |  |  |  |  |  |  |  |
| COC(=O)NC(=S)Nc1ccccc1NC(=S)NC(=O)OC |  |  | 712 | 836 | 40 | 21 |  |  |  |  |  |
| COc1ccc2c(c1)OCC(Cc1ccc(OC(C)=O)c(OC)c1)C2=O (stereo not drawn) |  |  | 3740 | 1388 | 221 | 70 |  |  |  |  |  |
| NCCCCNCCCN [SPERMIDINETRIHYDROCHLORIDE] | 72 | 22 | 1000 | 860 |  |  |  |  |  |  |  |
| CC(=O)OC1CCC23CC1(C)CCC2C(C)(C)CC3OC(C)=O (stereo not drawn) [CLOVANEDIOLDIACETATE] | 27 | 40 | 728 | 1356 |  |  |  |  |  |  |  |
| COc1ccc(C(=O)c2ccccc2)c(O)c1O |  |  | 780 | 1212 | 47 | 37 |  |  |  |  |  |
| COc1cc(O)c2c(=O)cc(C)oc2c1CC=C(C)C [HETEROPEUCENIN, METHYLETHER] |  |  | 772 | 1020 | 27 | 45 |  |  |  |  |  |
| COc1ccc2c(c1)OC/C(=C/c1ccc(OC)c(OC)c1)C2=O [SAPPANONEATRIMETHYLETHER] | 246 | 93 | 3652 | 2586 |  |  |  |  |  |  |  |
| COC(=O)c1cc(OC)c(=O)c2c(OC)c(OC)ccc2c1 [METHYL7-DESOXYPURPUROGALLIN-7-CARBOXYLATETRIMETHYLETHER] |  |  | 8248 | 1932 | 516 | 105 |  |  |  |  |  |
| O=c1c(-c2ccccc2)coc2cc(O)cc(O)c12 [5,7-DIHYDROXYISOFLAVONE] | 45 | 58 | 964 | 1776 |  |  |  |  |  |  |  |
| CC(=O)O[C@H]1CCC2(C)C3=C(CCC2C1(C)C)[C@@]1(C)CC[C@@H](C(C)CCC=C(C)C)[C@]1(C)CC3 (stereo partly drawn) [EUPHOLACETATE] |  |  | 1710 | 2020 | 89 | 111 |  |  |  |  |  |
